For data set [1] the following is noted: cited from earlier work.
Data set [2] in a line: First set of test cases: gadolinium lumbar discography with fluoroscopy and CT. The settings on record: for visibility of contrast on computer axial tomography: approximately one-hundred-and-sixty minutes after injection, case 1-1. Format: in vivo, human. On the procedure: A first set of test cases was conducted wherein it was identified that gadolinium would adequately opacify, thereby allowing adequate fluoroscopic imaging for of soft tissue portions of the spinal area and, for example, for lumbar discography procedures. […] During the first set of test cases, a solution of 469.01 mg/ml gadolinium (Magnevist—Berlex Laboratories, Wayne, N.J.) with 25 mg/ml Cefazolin (Apothecon, Princeton, N.J.) for antibacterial prophylaxis was injected into each disc using a standard three milliliter syringe. The following is a brief synopsis of six tests from the first set of tests:
The volume of contrast injected at pain onset, the end point (nucleography), the pain intensity measured with the numerical analog scale, and the concordant and/or discordant pain response were recorded for each spinal disc to be injected with gadolinium. Each spinal disc then was visualized with c-arm fluoroscopy to create a visualization of the nucleogram and provocation of the spinal discs.

Data set [3] in a line: Third set of cases: spinal interventional procedures with fluoroscopic guidance, adverse reactions. The data set is classed as in vivo, human. The source says: In a third set of cases, two-hundred-and-thirty patients underwent spinal interventional procedures with fluoroscopic guidance. Two-hundred-and-eleven patients were subsequently evaluated for any adverse reaction in the period immediately after the procedure and up to several weeks after the procedure. Seventy-four of the patients were male and one-hundred-and-thirty-seven were female. The age range of the patient population varied from sixteen years old to eighty-one year old, and the average age of the patient population was 48.7 years old. The only prophylactic medications that were administered before the procedure were antibiotics for patients undergoing discography, patients with significant cardiac disease, or patients with surgical implants. The number and type of procedures along with the number of adverse reactions for each procedure type are summarized in below in Table 1: […]

For data set [4] the following is noted: intravenous administration; cited from earlier work.
The nature of data set [5]: Second set of test cases: fluoroscopically guided spinal injections with gadolinium. The data set is classed as in vivo, human. On the procedure: During the second of set of tests, gadolinium was injected into a variety of target portions of the spinal area to create a contrast between the target portion and surrounding tissue. As described below, these contrasts were adequately sensed using fluoroscopy to create visual representations of the contrast between the target portion and the surrounding tissue. The second set of tests utilized a preferred embodiment of the method of using gadolinium as a contrast substance, where a visualization was created to use as a guide for the accurate injection of a diagnostic or therapeutic substance into the target portion of the spinal area. In this respect, visualization of the contrast helps to localize placement of a needle for an injection of a substance avoiding the harm that the injection might cause to surrounding tissue.
The second set of tests comprised chart review, performance of spinal injections with gadolinium under fluoroscopic guidance, and post procedure follow-up by phone at two and twelve weeks to assess any adverse reactions to the gadolinium. […] The tests utilized a contrast substance that was 469.01 mg/ml gadolinium (Magnevist—from Berlex Laboratories, Wayne, N.J.). […]

Setting [6] is: repeated exposure in sensitive individuals.

The values that follow come from patent US20050100510A1, “Methods for using gadolinium as a contrast media” (priority 2003, published 2005).

Entries after “also recorded” stand apart in the source; their conditions may differ. Where two headings read alike, the source gives them in different places.

`CC(=O)N(CC(O)CO)c1c(I)c(C(=O)NCC(O)CO)c(I)c(C(=O)NCC(O)CO)c1I` (stereo not drawn) [iohexol]: the anaphylaxis occurrence result was “one percent and two percent” in data set [1] (first dose administrations); “seventeen percent and thirty-five percent” in data set [1] (setting [6]).
As to `CNC[C@H](O)[C@@H](O)[C@H](O)[C@H](O)CO.CNC[C@H](O)[C@@H](O)[C@H](O)[C@H](O)CO.O=C([O-])CN(CCN(CC(=O)[O-])CC(=O)O)CCN(CC(=O)[O-])CC(=O)O.[Gd+3]` [gadolinium, gadopentate dimeglumine], the “visibility in disc material on fluoroscopic image” value in data set [2] (after injection into spinal discs) is given as “fluoroscopically visible; also recorded: clearly visible”. Also, the “visibility of contrast on computer axial tomography” value in data set [2] (L3-L4 spinal disc) is recorded as “visible”; in data set [2] (L4-L5 disrupted spinal disc), “less intensive, but still visible”. For the same compound, the “complications during or after the procedure” value in data set [2] (intradiscal, 469.01 mg/ml gadolinium with 25 mg/ml Cefazolin, single patient cases) is “No complications”. In addition, in data set [2] (more than one-hundred-and-twenty minutes after injection, discs with and without annular disruption), the “visibility on CT scan” value is on record as “still visible”. Also, the “visibility on computer axial tomography” value in data set [2] (thirty minutes after completion of the procedure, case 1-2) is on record as “showed gadolinium in each disc”. The “Number of Adverse Reactions” value in data set [3] (Caudal epidural, 16 procedures) came to 0; in data set [3] (Cervical SNRB, 14 procedures), 1; in data set [3] (Cervical interlaminar, 6 procedures), 1; in data set [3] (Lumbar SNRB, 55 procedures), 4; in data set [3] (Lumbar discography, 11 procedures), 0; in data set [3] (Lumbar epidurolysis, 4 procedures), 0. Also, the “Number of Adverse Reactions” value in data set [3] (Lumbar interlaminar, 37 procedures) stood at 1; in data set [3] (Lumbar intraarticular facet, 3 procedures), 0; in data set [3] (Lumbar sympathetic, 4 procedures), 0; in data set [3] (Other miscellaneous, 13 procedures), 1; in data set [3] (Sacroiliac joint, 59 procedures) it was 2. The “quality of visualizations from gadolinium-induced contrasts” value in data set [3] (all procedures, fluoroscopic devices) is “adequate visualizations”. Also, in data set [3] (of the five allergic-type reactions, likely due to contributing factors), the serious adverse reactions entry is listed as “one”. In addition, in data set [3] (out of the ten adverse reactions), the “adverse reactions attributable to allergic-type reactions” value is “five”. Also, the adverse reaction rate in data set [4] was 0.06%. Further, the “side effects, complications or adverse reactions” value in data set [5] (469.01 mg/ml gadolinium (Magnevist), follow-up at two and twelve weeks) was “no side effects or complications; also recorded: None of the individuals in the case series of the present invention had any adverse reactions”. Further, the visibility under fluoroscopy result in data set [5] (soft tissue of the spinal area) is “visible under fluoroscopy”.
Turning to `C[C@H](O)C(=O)Nc1c(I)c(C(=O)NC(CO)CO)c(I)c(C(=O)NC(CO)CO)c1I` [iopamidol], the anaphylaxis occurrence entry in data set [1] (first dose administrations) is “one percent and two percent”; in data set [1] (setting [6]), “seventeen percent and thirty-five percent”.
